Test results taken from patent US20240299486A1, “ADDRESSING INJECTION SITE REACTIONS ASSOCIATED WITH THE ADMINISTRATION OF ELAMIPRETIDE” (STEALTH BIOTHERAPEUTICS INC., priority 2022, published 2024).
“Also recorded” adds a separate entry of the source.

Legend:
healthy subjects [1] = test: Phase 1 crossover study: clinically assessed injection site reactions
Description: (§1) • This Phase 1, open-label, 6-arm crossover study included 10 healthy subjects ≥18 and ≤65 years of age. • All subjects received 60 mg of SQ elamipretide to alternating quadrants of the abdomen on each of 6 occasions (FIG. 3), with or without the interventions listed in Table 2. • For each treatment arm, ISR clinical and self-assessments were performed pre-elamipretide administration and at 0.5, 1, 2, 4, 6, 12, 24, and 48 hours after each elamipretide dose. • Blood samples for plasma concentrations of elamipretide and its metabolites were also collected pre-dose and at 0.25, 0.5, 1, 2, 4, and 6 hours post-elamipretide dose. • Primary endpoints consisted of comparisons of the grading from the clinical assessments and the self-assessments of each ISR parameter following administration of elamipretide with each separate intervention versus that of elamipretide alone. • Secondary endpoints consisted of comparison of various pharmacokinetic (PK) parameters and adverse events following administration of elamipretide with each separate intervention versus that of elamipretide alone.
(§2) After the screening period (up to 28 days) in this phase 1, open-label, 4-week, 6-part, crossover study, all eligible subjects received 60 mg (0.75 mL) of SC elamipretide to alternating quadrants of the abdomen on each of 6 occasions, with or without potential ISR interventions. The first treatment arm (Arm 1) commenced on Day 1 with administration of elamipretide only, followed by the remaining treatment arms (Arms 2-6) with the following potential mitigations: mometasone furoate, 0.1% ointment, applied once under a hydrocolloid occlusive dressing (DuoDERM Extra Thin) 7 days prior to elamipretide administration (Arm 2); ice application at the elamipretide injection site 5 minutes pre- and post-drug administration (Arm 3); tacrolimus 0.1% ointment applied 15 minutes pre-drug dosing (Arm 4); doxepin 5% cream applied 15 minutes pre-elamipretide administration (Arm 5); and diphenhydramine 50 mg orally taken 2 hours prior to administration (Arm 6). For each treatment arm, blood samples for plasma concentrations of elamipretide and its metabolites were collected pre-dose and at 0.25, 0.5, 1, 2, 4, and 6 hours post-elamipretide dose. Vital signs were recorded pre-dose and at 0.5 and 6 hours post-elamipretide administration. ISR clinical and self-assessments were performed pre-elamipretide administration and at 0.5, 1, 2, 4, 6, 12, 24, and 48 hours after each elamipretide dose. Injection sites were photographed at 0.5, 1, 2, 4, and 12 hours post-elamipretide dose.
(§3) The primary endpoints of this study were comprised of the following efficacy measures: clinical assessments and subject self-assessments. Specifically, the primary endpoints consisted of comparisons of the grading of each ISR parameter following administration of elamipretide with each separate intervention versus the grading of each ISR parameter following administration of elamipretide alone. For clinical assessments, the clinical staff used a standard procedure adapted from the Division of Aids Table for Grading the Severity of Adult and Pediatric Adverse Events to score pain, erythema, induration, and pruritus using a 4-point scale based on severity (0=None, 1=Mild, 2=Moderate, 3=Severe, 4=Potentially Life Threatening). The self-assessments were based on a questionnaire to determine how bothered the patient was following each injection of elamipretide and included the following parameters: pain, burning sensation, cold sensation, itching, redness, swelling, and bruising.
(§4) All statistical analyses were performed using SAS GRID Linux/SAS Studio (Version 9.4, or higher). PK parameters for elamipretide and its metabolites, M1 and M2, were summarized using descriptive statistics.

healthy subjects [2] = test: Phase 1 crossover study: self-assessed injection site reactions; assay type: in vivo, human; settings: 60 mg SQ elamipretide with or without the intervention, across all timepoints, all participants, n = 80
Description: as §1, §2, §3, §4

healthy subjects [3] = test: Phase 1 crossover study: safety (TEAEs, vital signs, ECG); assay type: in vivo, human; settings: Arm 6, 50 mg orally 2 hours prior to 60 mg SQ elamipretide, 10 subjects
Description: The secondary endpoints of this study consisted of PK and safety assessments. After measuring absorption and distribution PK of elamipretide and its metabolites (M1 and M2), comparisons of each Tmax, Cmax, and AUC0-6 following administration of elamipretide with each separate intervention versus Tmax, Cmax, and AUC0-6 following administration of elamipretide alone were performed. Safety assessments consisted of comparison of treatment emergent adverse events (TEAEs) reported following administration of elamipretide with each separate intervention versus TEAEs reported following administration of elamipretide alone. Safety measurements included TEAEs, clinical laboratory tests (e.g., serum chemistry and hematology), 12-lead ECGs, physical exams, and vital signs.

[4] = system: control (non-MRGPRX2 expressing) Chem-1 cells; settings: parent Chem-1 cells, Fluo-4
Description: MRGPRX2 expressing and control (non-MRGPRX2 expressing) Chem-1 cells lines were obtained from Discovery Services, EuroFins. Cells were cultured in Dulbecco's Modified Eagle Medium (DMEM) high glucose medium (4.5 g/L) with 10% fetal bovine serum (FBS), non-essential amino acids, and N-2-hydroxyethylpiperazine-N′-2-ethanesulfonic acid (HEPES) buffer (pH 7.0-7.6). Geneticin (G418) was used for selection of MRGPRX2-expressing Chem-1 cells. Cells were maintained at 37° C. at 5% CO2. Cells were seeded to a glass bottom 96-well plates at a density of 50,000 per well (Cellvis). Cells were loaded with Fluo-4 AM for 30 minutes at 37° C. at a concentration of 2.5 μM. Cells were washed once with Dulbecco's phosphate buffered saline (DPBS). Cells were rested at room temperature for 30 minutes before use and washed with DPBS. Cells were resuspended in 50 μl phosphate buffered saline (PBS) with calcium and magnesium. […] Plates were read immediately with a Biotek plate reader. Readings were taken every 6 seconds for 2 minutes.

MRGPRX2 receptor = biological target: T1, MRGPRX2 receptor (Homo sapiens, UniProt Q96LB1); test: Fluo-4 calcium assay in MRGPRX2 expressing Chem-1 cells; assay type: cell-based; settings: Chem-1 cells, Fluo-4
T1 construct: host or cells: Chem-1 cells (G418-selected)
T1 sequence (Q96LB1 1-330): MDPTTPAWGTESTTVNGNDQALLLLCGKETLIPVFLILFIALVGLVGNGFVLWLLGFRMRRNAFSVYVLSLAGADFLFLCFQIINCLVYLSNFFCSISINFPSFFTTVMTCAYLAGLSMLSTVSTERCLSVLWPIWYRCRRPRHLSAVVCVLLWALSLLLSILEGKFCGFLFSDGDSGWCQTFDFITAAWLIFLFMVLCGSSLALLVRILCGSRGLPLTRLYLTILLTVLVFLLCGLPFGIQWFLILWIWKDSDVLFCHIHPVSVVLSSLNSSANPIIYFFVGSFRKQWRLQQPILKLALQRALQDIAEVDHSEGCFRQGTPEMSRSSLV

[5] = 60 mg SQ elamipretide with or without the intervention, across all timepoints, all participants, n = 80
[6] = clinical assessment, vs elamipretide alone

CN(C)CCOC(c1ccccc1)c1ccccc1 [Diphenhydramine]
Clinically assessed Erythema or redness, (%) of Reported Reactions (healthy subjects [1]; [5]): (26.3) %
Clinically assessed Erythema or redness, Number of Reported Reactions (healthy subjects [1]; [5]): 21
Clinically assessed Induration or swelling, (%) of Reported Reactions (healthy subjects [1]; [5]): (6.3) %
Clinically assessed Induration or swelling, Number of Reported Reactions (healthy subjects [1]; [5]): 5
Clinically assessed Pain or tenderness, (%) of Reported Reactions (healthy subjects [1]; [5]): (2.5) %
Clinically assessed Pain or tenderness, Number of Reported Reactions (healthy subjects [1]; [5]): 2
Clinically assessed Pruritis, (%) of Reported Reactions (healthy subjects [1]; [5]): (10.0) %
Clinically assessed Pruritis, Number of Reported Reactions (healthy subjects [1]; [5]): 8
Overall effect of the intervention on ISRs compared to elamipretide alone (healthy subjects [1]; clinical and self-assessments, 60 mg SQ elamipretide, vs Arm 1 (no intervention)): most reduced; also recorded: potential in reducing induration; also recorded: Improvement
incidence of induration at 0.5 hours post-elamipretide dose (healthy subjects [1]; [6]): trend to significance in reduction
incidence of induration at 1 hour post-elamipretide dose (healthy subjects [1]; [6]): significantly decreased incidence
Self-assessed Bruising, (%) of Reported Reactions (healthy subjects [2]): (1.3) %
Self-assessed Bruising, Number of Reported Reactions (healthy subjects [2]): 1
Self-assessed Burning sensation, (%) of Reported Reactions (healthy subjects [2]): (1.3) %
Self-assessed Burning sensation, Number of Reported Reactions (healthy subjects [2]): 1
Self-assessed Cold Sensation, Number of Reported Reactions (healthy subjects [2]): 0.0
Self-assessed Itching, (%) of Reported Reactions (healthy subjects [2]): (11.3) %
Self-assessed Itching, Number of Reported Reactions (healthy subjects [2]): 9
Self-assessed Pain, (%) of Reported Reactions (healthy subjects [2]): (2.5) %
Self-assessed Pain, Number of Reported Reactions (healthy subjects [2]): 2
Self-assessed Redness, (%) of Reported Reactions (healthy subjects [2]): (25.0) %
Self-assessed Redness, Number of Reported Reactions (healthy subjects [2]): 20
Self-assessed Swelling, (%) of Reported Reactions (healthy subjects [2]): (6.3) %
Self-assessed Swelling, Number of Reported Reactions (healthy subjects [2]): 5
mild somnolence, incidence (healthy subjects [3]): 50%
mild somnolence, number of subjects (healthy subjects [3]): 5 subjects

C[C@H](CCC(=O)O)C[C@H](C)C[C@H](C)C(=O)/C=C(\O)[C@H](C)C[C@H](C)C/C=C/[C@@H](C)[C@@H](O)[C@@H](C)[C@@H](O)C[C@@H]1CC[C@@](C)([C@H]2CC[C@@](C)([C@@H](C)O)O2)O1 [Ionomycin]
effect on cells lacking the MRGPRX2 receptor (calcium mobilization) [4]: generates a calcium response
activation of the MRGPRX2 expressing cells (calcium mobilization) (MRGPRX2 receptor): generates a calcium response
